Here are results for 35 molecules from US10183950B2, “Thienopyrimidine inhibitors of atypical protein kinase C” (Cancer Research Technology Limited, priority 2011, dated 2019).

The structures appear in SMILES notation.

In this assay the target is T1, full-length human PKCι (Homo sapiens, UniProt P41743).
T1 construct: Recombinant, full-length human PKCι expressed in Sf21 insect cells is also commercially available; purchased; host or cells: Sf21 insect cells
T1 sequence (P41743 1-596): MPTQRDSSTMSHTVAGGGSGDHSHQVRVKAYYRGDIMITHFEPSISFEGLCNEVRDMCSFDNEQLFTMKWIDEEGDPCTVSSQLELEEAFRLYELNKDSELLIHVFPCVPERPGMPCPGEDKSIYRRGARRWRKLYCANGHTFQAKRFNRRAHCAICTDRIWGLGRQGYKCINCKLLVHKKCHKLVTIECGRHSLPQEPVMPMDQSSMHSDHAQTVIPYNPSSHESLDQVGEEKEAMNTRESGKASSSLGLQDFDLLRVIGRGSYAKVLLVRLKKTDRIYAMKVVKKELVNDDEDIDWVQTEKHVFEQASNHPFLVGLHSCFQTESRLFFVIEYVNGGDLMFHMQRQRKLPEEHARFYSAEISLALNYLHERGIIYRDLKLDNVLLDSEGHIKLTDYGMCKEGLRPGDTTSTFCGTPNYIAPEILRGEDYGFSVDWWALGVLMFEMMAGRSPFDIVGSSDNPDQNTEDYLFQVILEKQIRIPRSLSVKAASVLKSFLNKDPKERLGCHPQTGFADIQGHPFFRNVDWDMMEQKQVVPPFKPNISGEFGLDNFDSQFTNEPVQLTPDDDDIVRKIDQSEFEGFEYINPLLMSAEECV
Kind of assay: PKCι IC50 IMAP fluorescence polarisation assay, full-length enzyme. The settings on record: full length PKCi at 15 μM ATP; read-out: IC50 in IMAP assay against full length PKCi. The assay is classed as biochemical.

For orientation: IC50 means the midpoint of a concentration-inhibition curve. For `F[C@H]1CN(Cc2ccccc2)C[C@@H]1Nc1nc(-c2ccncc2)nc2ccsc12` [compound 315, ((3S,4S)-1-Benzyl-4-fluoro-pyrrolidin-3-yl)-(2-pyridin-4-yl-thieno[3,2-d]pyrimidin-4-yl)-amine], the IC50 lay in the range of 10 to 40 µM.
Under `c1cc(-c2nc(N[C@@H]3CCCNC3)c3sccc3n2)ccn1` [compound 316, (R)-Piperidin-3-yl-(2-pyridin-4-yl-thieno[3,2-d]pyrimidin-4-yl)-amine] stands 1 to 10 µM; under `c1cc(-c2nc(N[C@@H]3CCNC3)c3sccc3n2)ccn1` [compound 317, (2-Pyridin-4-yl-thieno[3,2-d]pyrimidin-4-yl)-(R)-pyrrolidin-3-yl-amine], 1 to 10 µM; under `N[C@@H]1CCN(c2nc(-c3ccncc3)nc3ccsc23)C1` [compound 318, (R)-1-(2-Pyridin-4-yl-thieno[3,2-d]pyrimidin-4-yl)-pyrrolidin-3-ylamine], 10 to 40 µM.
In the case of `O[C@H]1CNC[C@@H]1Nc1nc(-c2ccncc2)nc2ccsc12` [compound 319, (3S,4S)-4-(2-Pyridin-4-yl-thieno[3,2-d]pyrimidin-4-ylamino)-pyrrolidin-3-ol] it was 1 to 10 µM.
For the molecule `NC(=O)CN1CC[C@@H](Nc2nc(-c3ccncc3)nc3ccsc23)C1` [compound 320, 2-[(R)-3-(2-Pyridin-4-yl-thieno[3,2-d]pyrimidin-4-ylamino)-pyrrolidin-1-yl]-acetamide], the IC50 was in the range of 10 to 40 µM.
Regarding `F[C@@H]1CNC[C@@H]1Nc1nc(-c2ccncc2)nc2ccsc12` [compound 321, ((3S,4R)-4-Fluoro-pyrrolidin-3-yl)-(2-pyridin-4-yl-thieno[3,2-d]pyrimidin-4-yl)-amine], the IC50 was 10 to 40 µM.
Under `Clc1cnccc1-c1nc(N[C@@H]2CCNC2)c2sccc2n1` [compound 322, [2-(3-Chloro-pyridin-4-yl)-thieno[3,2-d]pyrimidin-4-yl]-(R)-pyrrolidin-3-yl-amine] stands 1 to 10 µM; under `N[C@H](CNc1nc(-c2ccncc2Cl)nc2ccsc12)Cc1ccccc1` [compound 323, (S)-N*1*-[2-(3-Chloro-pyridin-4-yl)-thieno[3,2-d]pyrimidin-4-yl]-3-phenyl-propane-1,2-diamine], 1 to 10 µM; under `CC(C)(C)c1cc2nc(-c3ccncc3)nc(NC[C@@H](N)Cc3ccccc3)c2s1` [compound 324, (S)-N*1*-(6-tert-Butyl-2-pyridin-4-yl-thieno[3,2-d]pyrimidin-4-yl)-3-phenyl-propane-1,2-diamine], 10 to 40 µM.
Take `Cc1sc2c(NC[C@@H](N)Cc3ccccc3)nc(-c3ccncc3)nc2c1C` [compound 325, (S)-N*1*-(6,7-Dimethyl-2-pyridin-4-yl-thieno[3,2-d]pyrimidin-4-yl)-3-phenyl-propane-1,2-diamine]: the IC50 was in the range of 0.1 to 1 µM.
In the case of `N[C@H](CNc1nc(-c2ccncc2)nc2c(-c3ccc(Br)cc3)csc12)Cc1ccccc1` [compound 326, (S)-N*1*-[7-(4-Bromo-phenyl)-2-pyridin-4-yl-thieno[3,2-d]pyrimidin-4-yl]-3-phenyl-propane-1,2-diamine] it was 1 to 10 µM; in that of `N[C@@H](CNc1nc(-c2ccncc2)nc2c(-c3ccc(Br)cc3)csc12)Cc1ccccc1` [compound 327, (R)-N*1*-[7-(4-Bromo-phenyl)-2-pyridin-4-yl-thieno[3,2-d]pyrimidin-4-yl]-3-phenyl-propane-1,2-diamine], 1 to 10 µM; in that of `Cc1sc2c(N[C@@H]3CCNC3)nc(-c3ccncc3)nc2c1Br` [compound 328, (7-Bromo-6-methyl-2-pyridin-4-yl-thieno[3,2-d]pyrimidin-4-yl)-(R)-pyrrolidin-3-yl-amine], 0.1 to 1 µM.
In the case of `Cc1sc2c(NC[C@H](N)Cc3ccccc3)nc(-c3ccncc3)nc2c1Br` [compound 329, (R)-N*1*-(7-Bromo-6-methyl-2-pyridin-4-yl-thieno[3,2-d]pyrimidin-4-yl)-3-phenyl-propane-1,2-diamine] it was 1 to 10 µM; in that of `Cc1sc2c(NC[C@H](C)N)nc(-c3ccncc3)nc2c1Br` [compound 331, (S)-N*1*-(7-Bromo-6-methyl-2-pyridin-4-yl-thieno[3,2-d]pyrimidin-4-yl)-propane-1,2-diamine], 1 to 10 µM; in that of `Cc1sc2c(N[C@H]3CCNC3)nc(-c3ccncc3)nc2c1Br` [compound 332, (7-Bromo-6-methyl-2-pyridin-4-yl-thieno[3,2-d]pyrimidin-4-yl)-(S)-pyrrolidin-3-yl-amine], 1 to 10 µM.
Consider `CC(C)(C)c1sc2c(NCCN)nc(-c3ccncc3)nc2c1Br` [compound 333, N*1*-(7-Bromo-6-tert-butyl-2-pyridin-4-yl-thieno[3,2-d]pyrimidin-4-yl)-ethane-1,2-diamine], for which the IC50 lay within 10 to 40 µM.
For the molecule `CC(C)(C)c1sc2c(NC[C@@H](N)Cc3ccccc3)nc(-c3ccncc3)nc2c1Br` [compound 334, (S)-N*1*-(7-Bromo-6-tert-butyl-2-pyridin-4-yl-thieno[3,2-d]pyrimidin-4-yl)-3-phenyl-propane-1,2-diamine], the IC50 fell in the range of 1 to 10 µM.
Under `CC(C)(C)c1sc2c(NC[C@H](N)Cc3ccccc3)nc(-c3ccncc3)nc2c1Br` [compound 335, (R)-N*1*-(7-Bromo-6-tert-butyl-2-pyridin-4-yl-thieno[3,2-d]pyrimidin-4-yl)-3-phenyl-propane-1,2-diamine] stands 10 to 40 µM; under `N[C@H](CNc1nc(-c2ccncc2)nc2c(Br)csc12)Cc1ccccc1` [compound 336, (S)—N*1*-(7-Bromo-2-pyridin-4-yl-thieno[3,2-d]pyrimidin-4-yl)-3-phenyl-propane-1,2-diamine], below 0.1 µM; under `Cc1c(Br)sc2c(NC[C@@H](N)Cc3ccccc3)nc(-c3ccncc3)nc12` [compound 337, (S)-N*1*-(6-Bromo-7-methyl-2-pyridin-4-yl-thieno[3,2-d]pyrimidin-4-yl)-3-phenyl-propane-1,2-diamine], 0.1 to 1 µM.
Under `NC(=O)CNc1nc(-c2ccncc2)nc2c(Br)csc12` [compound 338, 2-(7-Bromo-2-pyridin-4-yl-thieno[3,2-d]pyrimidin-4-ylamino)-acetamide] stands 10 to 40 µM; under `CN(C)CCNc1nc(-c2ccncc2)nc2c(Br)csc12` [compound 339, N′-(7-Bromo-2-pyridin-4-yl-thieno[3,2-d]pyrimidin-4-yl)-N,N-dimethyl-ethane-1,2-diamine], 10 to 40 µM.
As for `Cc1c(Br)sc2c(N[C@@H]3CCNC3)nc(-c3ccncc3)nc12` [compound 340, (6-Bromo-7-methyl-2-pyridin-4-yl-thieno[3,2-d]pyrimidin-4-yl)-(R)-pyrrolidin-3-yl-amine], the IC50 fell in the range of 0.1 to 1 µM.
Under `Brc1csc2c(NC[C@@H]3CCCN3)nc(-c3ccncc3)nc12` [compound 341, (7-Bromo-2-pyridin-4-yl-thieno[3,2-d]pyrimidin-4-yl)-(S)-1-pyrrolidin-2-ylmethyl-amine] stands 10 to 40 µM; under `Brc1csc2c(NC[C@H]3CCCN3)nc(-c3ccncc3)nc12` [compound 342, (7-Bromo-2-pyridin-4-yl-thieno[3,2-d]pyrimidin-4-yl)-(R)-1-pyrrolidin-2-ylmethyl-amine], 10 to 40 µM; under `Brc1csc2c(N[C@@H]3CCCNC3)nc(-c3ccncc3)nc12` [compound 343, (7-Bromo-2-pyridin-4-yl-thieno[3,2-d]pyrimidin-4-yl)-(R)-piperidin-3-yl-amine], 0.1 to 1 µM.
Under `Brc1csc2c(N[C@H]3CCNC3)nc(-c3ccncc3)nc12` [compound 344, (7-Bromo-2-pyridin-4-yl-thieno[3,2-d]pyrimidin-4-yl)-(S)-pyrrolidin-3-yl-amine] stands 1 to 10 µM; under `CNCCNc1nc(-c2ccncc2)nc2c(Br)csc12` [compound 345, N-(7-Bromo-2-pyridin-4-yl-thieno[3,2-d]pyrimidin-4-yl)-N′-methyl-ethane-1,2-diamine], 1 to 10 µM; under `CC(C)C[C@H](N)CNc1nc(-c2ccncc2)nc2c(Br)csc12` [compound 346, (S)-N*1*-(7-Bromo-2-pyridin-4-yl-thieno[3,2-d]pyrimidin-4-yl)-4-methyl-pentane-1,2-diamine], 1 to 10 µM.
For the molecule `CC(C)[C@H](N)CNc1nc(-c2ccncc2)nc2c(Br)csc12` [compound 347, (S)-N*1*-(7-Bromo-2-pyridin-4-yl-thieno[3,2-d]pyrimidin-4-yl)-3-methyl-butane-1,2-diamine], the IC50 was 0.1 to 1 µM.
Under `N[C@H](CNc1nc(-c2ccncc2)nc2c(Br)csc12)CC1CCCCC1` [compound 348, (S)-N*1*-(7-Bromo-2-pyridin-4-yl-thieno[3,2-d]pyrimidin-4-yl)-3-cyclohexyl-propane-1,2-diamine] stands 0.1 to 1 µM; under `NCCNc1nc(-c2ccncc2)nc2c(Br)csc12` [compound 349, N*1*-(7-Bromo-2-pyridin-4-yl-thieno[3,2-d]pyrimidin-4-yl)-ethane-1,2-diamine], 0.1 to 1 µM; under `Brc1csc2c(N3CCNCC3)nc(-c3ccncc3)nc12` [compound 350, 7-Bromo-4-piperazin-1-yl-2-pyridin-4-yl-thieno[3,2-d]pyrimidine], 0.1 to 1 µM.
